Test results published in the CheMixHub ionic liquid set.

Assay: xn = mol fraction of the nth substance listed

CC(=O)[O-].CCC[NH3+] + O
298.15 K, 101 kPa
Conditions | electrical conductivity [S/m]
x1 = 0.0032 | 0.713
x1 = 0.005 | 0.905
x1 = 0.0101 | 1.43
x1 = 0.0169 | 1.47
x2 = 0 | 0.043
x2 = 0.1576 | 0.082
x2 = 0.3525 | 0.165
x2 = 0.5506 | 0.401
x2 = 0.6999 | 0.685
x2 = 0.7885 | 0.937
x2 = 0.8198 | 1.06
x2 = 0.8501 | 1.18
x2 = 0.8849 | 1.34
x2 = 0.9041 | 1.44
x2 = 0.9082 | 1.47
x2 = 0.9305 | 1.59
x2 = 0.9455 | 1.65
x2 = 0.965 | 1.65
x2 = 0.9742 | 1.61

CC(=O)[O-].CC[NH+](CC)CC + O
298.15 K, 101 kPa
Conditions | viscosity [mPa·s]
x1 = 0.0288 | 6.32
x1 = 0.042 | 8.12
x1 = 0.0638 | 10.7
x1 = 0.0847 | 13.35
x1 = 0.1016 | 14.91
x1 = 0.1457 | 18.6
x1 = 0.2125 | 23.4
x1 = 0.2349 | 24.4
x1 = 0.2904 | 26.5
x1 = 0.3254 | 27.4
x1 = 0.367 | 27.8
x1 = 0.4174 | 28.2
x1 = 0.5162 | 27.6
x1 = 0.5579 | 26.8
x1 = 0.6055 | 26.1
x1 = 0.6604 | 25.3
x1 = 0.7243 | 24.2
x1 = 0.7996 | 22.9
x1 = 0.8899 | 22.7
x1 = 1 | 24.1

CCCCCC[N+](C)(C)C.[Br-] + O
298.15 K, 101 kPa
Conditions | electrical conductivity [S/m] | viscosity [mPa·s]
x1 = 0.000888 | – | 0.9148
x1 = 0.001394 | – | 0.9261
x1 = 0.002133 | – | 0.9439
x1 = 0.003331 | – | 0.9727
x1 = 0.004173 | – | 0.9962
x1 = 0.004485 | 1.84 | –
x1 = 0.005042 | – | 1.019
x1 = 0.005996 | – | 1.043
x1 = 0.006874 | – | 1.066
x1 = 0.007743 | – | 1.088
x1 = 0.008657 | – | 1.113
x1 = 0.0096 | – | 1.138
x1 = 0.01046 | – | 1.162
x1 = 0.01139 | – | 1.189
x1 = 0.01245 | – | 1.222

CCCCCC[NH2+]CCN.O=S(=O)([N-]S(=O)(=O)C(F)(F)F)C(F)(F)F + O
101.3 kPa
Conditions | electrical conductivity [S/m] | viscosity [mPa·s]
308.15 K, x1 = 0.5022 | 0.182 | 77.8
318.15 K, x1 = 0.5763 | 0.188 | 50.3
323.15 K, x1 = 0.401 | 0.589 | 21.2
328.15 K, x1 = 0.5022 | 0.42 | 29.1
328.15 K, x1 = 0.6828 | 0.233 | 45.5
338.15 K, x1 = 0.5022 | 0.6 | 19.7
343.15 K, x1 = 0.6828 | 0.428 | 24.2
343.15 K, x1 = 0.8154 | 0.321 | 25.9
348.15 K, x1 = 0.401 | 1.29 | 9
348.15 K, x1 = 0.5763 | 0.625 | 15
353.15 K, x1 = 0.5763 | 0.729 | 12.8

CCCC[N+]1(C)CCCC1.N#C[S-] + O
101 kPa
Conditions | viscosity [mPa·s]
298.15 K, x2 = 0.2203 | 68.6
298.15 K, x2 = 0.5252 | 28.9
298.15 K, x2 = 0.783 | 10.04
298.15 K, x2 = 0.8623 | 5.9
308.15 K, x2 = 0.5252 | 19.9
308.15 K, x2 = 0.6634 | 12.37
308.15 K, x2 = 0.8623 | 4.31
308.15 K, x2 = 0.9657 | 1.36
318.15 K, x2 = 0.2203 | 31.6
318.15 K, x2 = 0.8623 | 3.23
318.15 K, x2 = 0.9657 | 1.1
328.15 K, x2 = 0.0853 | 28.9
328.15 K, x2 = 0.783 | 4.19
338.15 K, x2 = 0 | 25.3
338.15 K, x2 = 0.2203 | 17.3
338.15 K, x2 = 0.783 | 3.27
338.15 K, x2 = 0.9657 | 0.79
348.15 K, x2 = 0.2203 | 13.32
348.15 K, x2 = 0.6634 | 4.42
348.15 K, x2 = 0.9657 | 0.69
